According to patent US10065954B2, “Substituted imidazo[4,5-c]pyridines as SSAO inhibitors” (Proximagen Limited, priority 2014, dated 2018):

These compounds were tested against T1, purified recombinantly expressed human SSAO (Homo sapiens, UniProt Q16853) (assay: SSAO enzyme inhibition assay (benzylamine substrate; hydrogen peroxide/HRP-coupled or 14C-aldehyde detection)). Settings: SSAO inhibitory activity; recombinant human SSAO, RT.
T1 construct: made in house
T1 sequence (Q16853 1-763): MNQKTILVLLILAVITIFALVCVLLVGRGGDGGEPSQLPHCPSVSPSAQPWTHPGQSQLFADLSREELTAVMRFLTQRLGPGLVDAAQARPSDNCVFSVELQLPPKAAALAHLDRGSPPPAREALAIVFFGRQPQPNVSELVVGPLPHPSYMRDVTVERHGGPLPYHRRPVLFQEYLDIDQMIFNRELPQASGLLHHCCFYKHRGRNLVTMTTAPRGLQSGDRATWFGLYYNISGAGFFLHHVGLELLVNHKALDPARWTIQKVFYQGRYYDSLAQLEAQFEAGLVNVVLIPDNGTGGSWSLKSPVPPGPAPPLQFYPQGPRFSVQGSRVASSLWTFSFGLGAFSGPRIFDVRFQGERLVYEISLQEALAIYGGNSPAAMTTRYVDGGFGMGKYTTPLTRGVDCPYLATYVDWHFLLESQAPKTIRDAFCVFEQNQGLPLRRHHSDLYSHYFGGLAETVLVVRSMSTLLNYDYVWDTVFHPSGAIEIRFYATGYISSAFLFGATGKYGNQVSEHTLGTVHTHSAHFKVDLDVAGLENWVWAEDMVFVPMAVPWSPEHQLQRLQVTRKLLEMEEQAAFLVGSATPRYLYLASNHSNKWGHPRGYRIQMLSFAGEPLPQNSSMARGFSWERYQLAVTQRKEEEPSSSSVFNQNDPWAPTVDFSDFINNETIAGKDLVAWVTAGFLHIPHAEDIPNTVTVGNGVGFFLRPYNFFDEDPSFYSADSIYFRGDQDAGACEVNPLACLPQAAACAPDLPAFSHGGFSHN
Type: biochemical
Description: All primary assays were performed at RT. with purified recombinantly expressed human SSAO. Enzyme was prepared essentially as described in Öhman et al. (Protein Expression and Purification 46 (2006) 321-331). In addition, secondary- and selectivity assays were performed using SSAO prepared from various tissues or purified rat recombinant SSAO. The enzyme activity was assayed with benzylamine as substrate by measuring either benzaldehyde production, using ^14C-labeled substrate, or by utilizing the production of hydrogen peroxide in a horseradish peroxidase (HRP) coupled reaction. Briefly, test compounds were dissolved in dimethyl sulfoxide (DMSO) to a concentration of 10 mM. Dose-response measurements were assayed by either creating 1:10 serial dilutions in DMSO to produce a 7 point curve or by making 1:3 serial dilutions in DMSO to produce 11 point curves. The top concentrations were adjusted depending on the potency of the compounds and subsequent dilution in reaction buffer yielded a final DMSO concentration ≤2%.
In a horseradish peroxidase (HRP) coupled reaction, hydrogen peroxide oxidation of 10-acetyl-3,7-dihydroxyphenoxazine produced resorufin, which is a highly fluorescent compound (Zhout and Panchuk-Voloshina. Analytical Biochemistry 253 (1997) 169-174; Amplex® Red Hydrogen Peroxide/peroxidase Assay kit, Invitrogen A22188). Enzyme and compounds in 50 mM sodium phosphate, pH 7.4 were set to pre-incubate in flat-bottomed microtiter plates for approximately 15 min before initiating the reaction by addition of a mixture of HRP, benzylamine and Amplex reagent. Benzylamine concentration was fixed at a concentration corresponding to the Michaelis constant, determined using standard procedures. Fluorescence intensity was then measured at several time points during 1-2 h, exciting at 544 nm and reading the emission at 590 nm. For the human SSAO assay final concentrations of the reagents in the assay wells were: SSAO enzyme 1 ug/mL, benzylamine 100 uM, Amplex reagent 20 uM, HRP 0.1 U/mL and varying concentrations of test compound. The inhibition was measured as % decrease of the signal compared to a control without inhibitor (only diluted DMSO). The background signal from a sample containing no SSAO enzyme was subtracted from all data points. Data was fitted to a four parameter logistic model and IC50 values were calculated using the GraphPad Prism 4 or XLfit 4 programs.
SSAO activity was assayed using […] benzylamine and analysed by measuring radioactive benzaldehyde. In a white 96-well optiplate (Packard), 20 uL of diluted test compound was pre-incubated at RT with 20 uL SSAO enzyme for approximately 15 min with continuous agitation. All dilutions were made with PBS. The reaction was initiated by adding 20 uL of the benzylamine substrate solution containing Benzylamine hydrochloride (CFA589, GE Healthcare). The plate was incubated for 1 h as above after which the reaction was stopped by acidification (10 uL 1M aq HCl). Then 90 uL Micro Scint-E solution (Perkin-Elmer) was added to each well and the plate was continuously mixed for 15 min. Phase separation occurred instantly and activity was read in a Topcount scintillation counter (Perkin-Elmer). In the final reaction well, the human recombinant SSAO concentration was 10 ug/mL. In order to optimize sensitivity, the substrate concentration was decreased as compared to the HRP coupled assay in order to get a higher fraction of radioactive product. In the human SSAO assay, benzylamine concentration was 40 uM (0.2uCi/mL). Data was analysed as above.

Compared with `Fc1ccc(-n2c(-c3ccc(N4CCOCC4)nc3)nc3ccncc32)nc1` [Compound 1, 4-{5-[3-(5-Fluoropyridin-2-yl)-3H-imidazo[4,5-c]pyridin-2-yl]pyridin-2-yl}morpholine], `Cc1cc(N2CCOCC2)ncc1-c1nc2ccncc2n1-c1ccc(F)cn1` [Compound 14, 4-{5-[3-(5-Fluoropyridin-2-yl)-3H-imidazo[4,5-c]pyridin-2-yl]-4-methylpyridin-2-yl}morpholine; tris(trifluoroacetic acid)] is higher in IC50: 50 to 200 nM for the first, 200 to 1200 nM for the second.

`Cc1cc(N2CCOCC2)ncc1-c1nc2ccncc2n1-c1ccc(F)cc1F` [Compound 2, 4-{5-[3-(2,4-Difluorophenyl)-3H-imidazo[4,5-c]pyridin-2-yl]-4-methylpyridin-2-yl}morpholine] and `Cc1ccc(-n2c(-c3cnc(N4CCOCC4)cc3C)nc3ccncc32)c(F)c1` [Compound 8, 4-{5-[3-(2-Fluoro-4-methylphenyl)-3H-imidazo[4,5-c]pyridin-2-yl]-4-methylpyridin-2-yl}morpholine] cannot be ordered by IC50: under 50 nM for the first, under 50 nM for the second.

First: Fc1ccc(-n2c(-c3cnc(NC4CCOCC4)nc3)nc3ccncc32)c(F)c1 [Compound 3, 5-[3-(2,4-Difluorophenyl)-3H-imidazo[4,5-c]pyridin-2-yl]-N-(oxan-4-yl)pyrimidin-2-amine]
Second: Fc1ccc(-n2c(-c3ccc(NC4CC4)nc3)nc3ccncc32)cc1 [Compound 22, N-Cyclopropyl-5-[3-(4-fluorophenyl)-3H-imidazo[4,5-c]pyridin-2-yl]pyridin-2-amine]
The IC50 of the first is higher: 50 to 200 nM for the first, under 50 nM for the second. The second is the more potent here.

First: CCN(CC)c1ncc(-c2nc3ccncc3n2-c2ccc(C)nc2)cn1 [Compound 4, N,N-Diethyl-5-[3-(6-methylpyridin-3-yl)-3H-imidazo[4,5-c]pyridin-2-yl]pyrimidin-2-amine]
Second: CCN(CC)c1ncc(-c2nc3ccncc3n2-c2ccc(C)cc2)cn1 [Compound 6, N,N-Diethyl-5-[3-(4-methylphenyl)-3H-imidazo[4,5-c]pyridin-2-yl]pyrimidin-2-amine]
The IC50 of the first is higher: 50 to 200 nM for the first, under 50 nM for the second. The second is the more potent here.

First: CCN(CC)c1ncc(-c2nc3ccncc3n2-c2ccc(F)cc2)cn1 [Compound 5, N,N-Diethyl-5-[3-(4-fluorophenyl)-3H-imidazo[4,5-c]pyridin-2-yl]pyrimidin-2-amine]
Second: CCN(CC)c1ncc(-c2nc3ccncc3n2-c2ccc(C)cn2)cn1 [Compound 7, N,N-Diethyl-5-[3-(5-methylpyridin-2-yl)-3H-imidazo[4,5-c]pyridin-2-yl]pyrimidin-2-amine]
The IC50 of the first is lower: under 50 nM for the first, 50 to 200 nM for the second. The first is the more potent here.

First: Cc1cc(N2CCOCC2)ncc1-c1nc2ccncc2n1-c1ccc(Cl)cc1 [Compound 9, 4-{5-[3-(4-Chlorophenyl)-3H-imidazo[4,5-c]pyridin-2-yl]-4-methylpyridin-2-yl}morpholine]
Second: Cc1ccc(-n2c(-c3cnc(N4CCOCC4)cc3C)nc3ccncc32)nc1 [Compound 13, 4-{4-Methyl-5-[3-(5-methylpyridin-2-yl)-3H-imidazo[4,5-c]pyridin-2-yl]pyridin-2-yl}morpholine]
The IC50 of the first is lower: under 50 nM for the first, 50 to 200 nM for the second.

`Cc1ccc(-n2c(-c3ccc(N4CCC(F)(F)CC4)nc3)nc3ccncc32)cc1` [Compound 11, 2-(4,4-Difluoropiperidin-1-yl)-5-[3-(4-methylphenyl)-3H-imidazo[4,5-c]pyridin-2-yl]pyridine] and `Fc1ccc(-n2c(-c3ccc(N4CCSCC4)nc3)nc3ccncc32)cc1` [Compound 16, 4-{5-[3-(4-Fluorophenyl)-3H-imidazo[4,5-c]pyridin-2-yl]pyridin-2-yl}thiomorpholine] cannot be ordered by IC50: under 50 nM for the first, under 50 nM for the second.

First: Fc1ccc(-n2c(-c3ccc(NCCN4CCOCC4)nc3)nc3ccncc32)cc1 [Compound 20, 5-[3-(4-Fluorophenyl)-3H-imidazo[4,5-c]pyridin-2-yl]-N-[2-(morpholin-4-yl)ethyl]pyridin-2-amine]
Second: Cc1ccc(-n2c(-c3ccc(N4CCOCC4)cc3)nc3ccncc32)cn1 [Compound 28, 4-{4-[3-(6-Methylpyridin-3-yl)-3H-imidazo[4,5-c]pyridin-2-yl]phenyl}morpholine]
The IC50 of the first is lower: under 50 nM for the first, 50 to 200 nM for the second. The first is the more potent here.

First: Cc1ccc(-n2c(-c3ccc(NC4CC4)nc3)nc3ccncc32)cn1 [Compound 23, N-Cyclopropyl-5-[3-(6-methylpyridin-3-yl)-3H-imidazo[4,5-c]pyridin-2-yl]pyridin-2-amine]
Second: Cc1ccc(-n2c(-c3cnc(N4CCCC4)nc3)nc3ccncc32)cn1 [Compound 25, 5-[3-(6-Methylpyridin-3-yl)-3H-imidazo[4,5-c]pyridin-2-yl]-2-(pyrrolidin-1-yl)pyrimidine]
The IC50 of the first is higher: 200 to 1200 nM for the first, 50 to 200 nM for the second.

`Cc1ccc(-n2c(-c3ccc(NC(C)C)nc3)nc3ccncc32)cc1` [Compound 24, 5-[3-(4-Methylphenyl)-3H-imidazo[4,5-c]pyridin-2-yl]-N-(propan-2-yl)pyridin-2-amine] and `Cc1ccc(-n2c(-c3cnc(N4CCCC4)nc3)nc3ccncc32)cc1` [Compound 29, 5-[3-(4-Methylphenyl)-3H-imidazo[4,5-c]pyridin-2-yl]-2-(pyrrolidin-1-yl)pyrimidine] cannot be ordered by IC50: under 50 nM for the first, under 50 nM for the second.

`Cc1ccc(-n2c(-c3cnc(N4CCCC4)nc3)nc3ccncc32)nc1` [Compound 26, 5-[3-(5-Methylpyridin-2-yl)-3H-imidazo[4,5-c]pyridin-2-yl]-2-(pyrrolidin-1-yl)pyrimidine] and `Fc1ccc(-n2c(-c3cnc(N4CCCC4)nc3)nc3ccncc32)nc1` [Compound 27, 5-[3-(5-Fluoropyridin-2-yl)-3H-imidazo[4,5-c]pyridin-2-yl]-2-(pyrrolidin-1-yl)pyrimidine] fall in the same range of IC50: 50 to 200 nM for the first, 50 to 200 nM for the second.

First: Cc1ccc(-n2c(-c3ccc(N4CCOCC4)cc3)nc3ccncc32)nc1 [Compound 30, 4-{4-[3-(5-Methylpyridin-2-yl)-3H-imidazo[4,5-c]pyridin-2-yl]phenyl}morpholine]
Second: Cc1ccc(-n2c(-c3ccc(N4CCCC4)cc3)nc3ccncc32)cn1 [Compound 31, 2-Methyl-5-{2-[4-(pyrrolidin-1-yl)phenyl]-3H-imidazo[4,5-c]pyridin-3-yl}pyridine]
The IC50 of the first is higher: 200 to 1200 nM for the first, under 50 nM for the second. The second is the more potent here.

First: Cc1ccc(-n2c(-c3ccc(N4CCCC4)cc3F)nc3ccncc32)cn1 [Compound 32, 5-{2-[2-Fluoro-4-(pyrrolidin-1-yl)phenyl]-3H-imidazo[4,5-c]pyridin-3-yl}-2-methylpyridine]
Second: Cc1ccc(-n2c(-c3ccc(N4CCOCC4)cc3F)nc3ccncc32)cn1 [Compound 33, 4-{3-Fluoro-4-[3-(6-methylpyridin-3-yl)-3H-imidazo[4,5-c]pyridin-2-yl]phenyl}morpholine]
The IC50 of the first is lower: under 50 nM for the first, 50 to 200 nM for the second. The first is the more potent here.

With `Cc1ccc(-n2c(-c3ccc(N4CCCC4)c(F)c3)nc3ccncc32)cn1` [Compound 34, 5-{2-[3-Fluoro-4-(pyrrolidin-1-yl)phenyl]-3H-imidazo[4,5-c]pyridin-3-yl}-2-methylpyridine] the IC50 was 50 to 200 nM.
